# Experimental data published in patent publication US11059815B2, “Synthesis of small molecule histone deacetylase 6 degraders, compounds formed thereby, and pharmaceutical compositions containing them” (Wisconsin Alumni Research Foundation, priority 2018, dated 2021).
# Like-named read-outs stand apart in the source and are kept apart here.
# Tested on: MM1S cells
# Assay: Cell viability assay in MM1S cells
# Format: cell-based, human
# Conditions: for Maximal Inhibition (%) of growth / IC50: 0.3 nM to 3 μM, nonlinear fit, ± SD; for IC50 / inhibition at 1 µM: Homo sapiens, MM1.S; for IC50: read-out: IC50 of antiproliferation
# Method: FIG. 14A is a histogram depicting cell viability of MM1S cells treated with compounds at 1 μM for 72 h. FIG. 14B is a graph showing cell viability of MM1S cells treated with compounds at concentrations from 0.3 nM to 3 μM for 72 h. All data were normalized to vehicle (DMSO)-treated group and dot plot represented as mean of relative viability (n=3) with ±SD as error bar. For the curve in FIG. 14B, nonlinear fitting of inhibitor concentration vs. response (three parameters) was generated by GraphPad Prism with R^2 from 0.92 to 0.97. Statistical significance was analyzed by one-way ANOVA for FIG. 14A and two-way ANOVA for FIG. 14B. Not significant (ns) P>0.05, *P≤0.05, **P≤0.01, ***P≤0.001, ****P≤0.0001.
# FIG. 18 is a histogram showing that HDAC6 degrader and IMiD inhibited MM1S growth synergistically. MM1S cells were treated for 72 h and cell proliferation was examined by AlarmaBlue-brand cell viability assay (ThermoFisher Scientific, Waltham, Mass., USA). Statistical significance was analyzed by one-way ANOVA. Not significant (ns) P>0.05, *P≤0.05, **P≤0.01, ***P≤0.001, ****P≤0.000
# Single treatment or co-treatment was performed as combined therapy (1 μM) for 72 hours in MM1S cells. […] However, the single treatment of 12d improved about 19% (P=0.0017) and 11% (P=0.0213) growth inhibition comparing with the combination sets of 13+15 (1:1) and pomalidomide+Next-A (1:1), respectively. To further confirm the observed enhancement, the anti-proliferation in response to 12d was studied from 0.3 nM to 3 μM. This single treatment was compared with dual treatment of 13 and 15 to rule out the potential complication derived from cell permeability issue. Degrader 12d lowered the bottom line (minimal proliferation) of curve over 20% although its IC50 was […] consequentially.
# MM1S cells were harvested and plated with 1×10^5 cells in […] media per well in 96-well plate. After overnight seeding, 25 μL media containing 5× dosing concentration of the compounds or vehicle was added to each well. After 72-hour treatment at 37° C. in a humidified 5% CO2 atmosphere, 12.5 μL 10× resazurin solution (1 mg/mL) was added to each well. Then cells were incubated at 37° C. overnight. The optical density was read at 570 nm and 600 nm by plate reader.
# The relative viability (RV) was measured by followed formula: […]
# The single treatment of HDAC6 inhibitor, HDAC6 degrader 3j, IMiD (pomalidomide), and the combination of the two was compared in MM1S cells to evaluate cell vialility. […] Pomalidomide suppressed ˜50% proliferation at either 1 μM or 100 nM concentration. […] The results confirmed that HDAC6 degradation and IKZF degradation work synergistically to inhibit the growth of multiple myeloma cells.
smiles,measurement,setting,value
"CCCCN(Cc1ccc(C(=O)OC)cc1)C(=O)Nc1ccc(OCCCCCn2cc(CNc3cccc4c3C(=O)N(C3CCC(=O)NC3=O)C4=O)nn2)cc1 (stereo not shown) [Compound 13, Methyl 4-((1-butyl-3-(4-((5-(4-(((2-(2,6-dioxopiperidin-3-yl)-1,3-dioxoisoindolin-4-yl)amino)methyl)-1H-1,2,3-triazol-1-yl)pentyl)oxy)phenyl)ureido)methyl)benzoate]",Maximal Inhibition (%) of growth,72 h,43.96 ± 1.16%
same,IC50,72 h,17.7 ± 2.84 nM
CCCCN(Cc1ccc(C(=O)NO)cc1)C(=O)Nc1ccc(OCCCCCn2cc(CNc3cccc4c3C(=O)N(C3CCC(=O)NC3=O)C4=O)nn2)cc1 (stereo not shown) [Compound 2],anti-proliferation effect of degrader alone,,significant anti-proliferation effect
"CCCCN(Cc1ccc(C(=O)NO)cc1)C(=O)Nc1ccc(OCCCCCn2cc(CNc3cccc4c3C(=O)N(C3CCC(=O)N(C)C3=O)C4=O)nn2)cc1 (stereo not shown) [Compound 15, 4-((1-butyl-3-(4-((5-(4-(((2-(1-methyl-2,6-dioxopiperidin-3-yl)-1,3-dioxoisoindolin-4-yl)amino)methyl)-1H-1,2,3-triazol-1-yl)pentyl)oxy)phenyl)ureido)methyl)-N-hydroxybenzamide]",effect on cell growth,"1 μM, 72 h",totally inactive
"CCCCN(Cc1ccc(C(=O)NO)cc1)C(=O)Nc1ccccc1 [Next-A, 4-[[butyl[(phenylamino)carbonyl]amino]methyl]-N-hydroxy-benzamide, reference compound]","anti-proliferation effect, single treatment","1 μM, 72 h",did not show any anti-proliferation effect
same,effect on cell growth,"1 μM, 72 h",minor effects
"Nc1cccc2c1C(=O)N(C1CCC(=O)NC1=O)C2=O (stereo not shown) [Pomalidomide, reference compound]",suppression of proliferation,"either 1 μM or 100 nM, 72 h",~50%
"CCCCN(Cc1ccc(C(=O)NO)cc1)C(=O)Nc1ccc(OCCCCCn2cc(CNc3cccc4c3C(=O)N(C3CCC(=O)NC3=O)C4=O)nn2)cc1 (stereo not shown) [Compound 12d, 4-((1-butyl-3-(4-((5-(4-(((2-(2,6-dioxopiperidin-3-yl)-1,3-dioxoisoindolin-4-yl)amino)methyl)-1H-1,2,3-triazol-1-yl)pentyl)oxy)phenyl)ureido)methyl)-N-hydroxybenzamide]",Maximal Inhibition (%) of growth,72 h,63.15 ± 1.82%
same,degrader concentration at which HDAC6 degradation and IKZF degradation had synergistic effects,72 h,> 300 nM
same,lowering of bottom line (minimal proliferation) of curve,"72 h, versus 13 and 15 dual treatment",over 20%
same,IC50,72 h,74.9 ± 11.3 nM
same,inhibition at 1 µM,"1 μM, 72 h, P=0.0017, read-out: improvement of growth inhibition compared with 13+15 (1:1)",~19%
same,inhibition at 1 µM,"1 μM, 72 h, P=0.0213, read-out: improvement of growth inhibition compared with pomalidomide+Next-A (1:1)",~11%
